Laboratory results published in US20140288185A1, “NICOTINIC RECEPTOR NON-COMPETITIVE MODULATORS” (Targacept, Inc., priority 2011, published 2014).
Like-named read-outs stand apart in the source and are kept apart here.

Columns and labels:
[1] = biological target: Nicotinic, human α4β2 (Homo sapiens, UniProt P17787+P43681); test: Competition binding, human α4β2 nicotinic receptor ([3H]nicotine)
Method: (§1) SH-EP1-human α4β2 (Eaton et al., 2003), cell lines were obtained from Dr. Ron Lukas (Barrow Neurological Institute). Cells were maintained in proliferative growth phase in Dulbecco's modified Eagle's medium (Invitrogen, Carlsbad, Calif.) with 10% horse serum (Invitrogen), 5% fetal bovine serum (HyClone, Logan Utah), 1 mM sodium pyruvate, 4 mM L-glutamine. For maintenance of stable transfectants, the α4β2 cell media was supplemented with 0.25 mg/mL zeocin and 0.13 mg/mL hygromycin B.
(§2) Cells were harvested in ice-cold PBS, pH 7.4, then homogenized with a Polytron (Kinematica GmbH, Switzerland). Homogenates were centrifuged at 40,000 g for 20 minutes (4° C.). The pellet was re-suspended in PBS and protein concentration determined using the Pierce BCA Protein Assay kit (Pierce Biotechnology, Rockford, Ill.).
(§3) Binding to nicotinic receptors was assayed on membranes using standard methods adapted from published procedures (Lippiello and Fernandes 1986; Davies et al., 1999). In brief, membranes were reconstituted from frozen stocks and incubated for 2 h on ice in 150 μl assay buffer (50 mM Tris, 154 mM NaCl, pH 7.4) in the presence of competitor compound (0.001 nM to 100 μM) and radioligand. [^3H]-nicotine (L-(−)-[N-methyl-^3H]-nicotine, 69.5 Ci/mmol, Perkin-Elmer Life Sciences, Waltham, Mass.) was used for human α4β2 binding studies. [^3H]-epibatidine (52 Ci/mmol, Perkin-Elmer Life Sciences) was used for binding studies at the other nicotinic receptor subtypes. Incubation was terminated by rapid filtration on a multimanifold tissue harvester (Brandel, Gaithersburg, Md.) using GF/B filters presoaked in 0.33% polyethyleneimine (w/v) to reduce non-specific binding. Filters were washed 3 times with ice-cold assay buffer and the retained radioactivity was determined by liquid scintillation counting.
(§4) Binding data were expressed as percent total control binding. Replicates for each point were averaged and plotted against the log of drug concentration. The IC50 (concentration of the compound that produces 50% inhibition of binding) was determined by least squares non-linear regression using GraphPad Prism software (GraphPAD, San Diego, Calif.). Ki was calculated using the Cheng-Prusoff equation (Cheng and Prusoff, 1973).

[2] = biological target: human α4β2 (HS) (Homo sapiens, UniProt P17787+P43681); test: Calcium flux inhibition, SH-EP1-human α4β2 treated at 29° C. (HS); format: cell-based
Method: as §1
(§5) Forty-eight hours prior to each experiment, cells were plated in 96 well black-walled, clear bottom plates (Corning, Corning, N.Y.) at 60-100,000 cells/well. On the day of the experiment, growth medium was gently removed, 200 μL 1×FLIPR Calcium 4 Assay reagent (Molecular Devices, Sunnyvale, Calif.) in assay buffer (20 mM HEPES, 7 mM TRIS base, 4 mM CaCl2, 5 mM D-glucose, 0.8 mM MgSO4, 5 mM KCl, 0.8 mM MgCl2, 120 mM N-methyl D-glucamine, 20 mM NaCl, pH 7.4 for SH-EP1-human α4β2 cells or 10 mM HEPES, 2.5 mM CaCl2, 5.6 mM D-glucose, 0.8 mM MgSO4, 5.3 mM KCl, 138 mM NaCl, pH 7.4 with TRIS-base for all other cell lines) was added to each well and plates were incubated at 37° C. for 1 hour (29° C. for the 29° C.-treated SH-EP1-human α4β2 cells). For inhibition studies, competitor compound (10 pM-10 μM) was added at the time of dye addition. The plates were removed from the incubator and allowed to equilibrate to room temperature. Plates were transferred to a FLIPR Tetra fluorometric imaging plate reader (Molecular Devices) for addition of compound and monitoring of fluorescence (excitation 485 nm, emission 525 nm). The amount of calcium flux was compared to both a positive (nicotine) and negative control (buffer alone). The positive control was defined as 100% response and the results of the test compounds were expressed as a percentage of the positive control. For inhibition studies, the agonist nicotine was used at concentrations of 1 μM for SH-EP1-human α4β2 treated at 29° C. (HS), 10 μM for SH-EP1-human α4β2 maintained at 37° C. (LS), and 20 μM for SH-SY5Y cells or CHO_human α3β4.

[3] = biological target: human α4β2 (LS) (Homo sapiens, UniProt P17787+P43681); test: Calcium flux inhibition, SH-EP1-human α4β2 maintained at 37° C. (LS); format: cell-based; details: for Emax: read-out: Human α4β2 Ca Flux Imax [37C/HS]
Method: as §1
as §5, with “For inhibition studies, the agonist nicotine was used at concentrations of 1 μM for SH-EP1-human α4β2 treated at 29° C. (HS), 10 μM for SH-EP1-human α4β2 maintained at 37° C.” left out

[4] = biological target: T1, Human Ganglion (SH-SY5Y cells) (Homo sapiens, UniProt P30532+P30926+P32297); test: Calcium flux inhibition, human ganglion (SH-SY5Y cells); format: cell-based
T1 construct: endogenous in cells; host or cells: SH-SY5Y human neuroblastoma cells
Method: as §5

[5] = biological target: T2, Nicotinic, human α3β4α5 (Homo sapiens, UniProt P30532+P30926+P32297); test: Competition binding, human ganglion nicotinic receptor (SH-SY5Y membranes); details: SH-SY5Y cell membranes (α3β4α5), [3H]epibatidine 1 nM; read-out: Human Ganglion Ki
T2 construct: endogenous in cells; host or cells: SH-SY5Y human neuroblastoma cells
Method: as §2, §3, §4

[6] = biological target: T3, Nicotinic, human α3β4 (Homo sapiens, UniProt P30926+P32297); test: Competition binding, human α3β4 nicotinic receptor (CHO human α3β4 membranes)
T3 construct: host or cells: CHO
Method: (§6) CHO-human α3β4 cells (obtained from ChanTest, Cleveland, Ohio, catalog #CT6021) were maintained in proliferative growth phase in Ham's F12 (VWR) with 10% fetal bovine serum (Invitrogen), 0.25 mg/mL geneticin; 0.4 mg/ml zeocin. The amino acid sequences encoded by the transfected cDNA constructs used to generate the CHO-human α3β4 cells are identical to the translated sequences for GenBank accession numbers NM_000743.2 and NM_000750.3, respectively.
as §2, §3, §4

[7] = biological target: T4, human α3β4 (Homo sapiens, UniProt P30926+P32297); test: Calcium flux inhibition, CHO-human α3β4 cells; format: cell-based
T4 construct: host or cells: CHO
Method: as §6, §5

[8] = SH-EP1-Human α4β2 cell membranes, [3H]nicotine 2 nM, read-out: Human α4β2 Ki
[9] = 29° C.-treated cells (HS), nicotine 1 μM
[10] = 29° C.-treated cells (HS), nicotine 1 μM, read-out: Human α4β2 Ca Flux IC50 [29C/HS]
[11] = cells maintained at 37° C. (LS), nicotine 10 μM, read-out: Human α4β2 Ca Flux IC50 [37C/LS]
[12] = cells maintained at 37° C., nicotine 10 μM
[13] = SH-SY5Y cells, nicotine 20 μM, read-out: Human Ganglion Ca Flux IC50
[14] = CHO Human α3β4 membranes, [3H]epibatidine 1 nM, read-out: Human CHO α3β4 Ki
[15] = nicotine 20 μM, read-out: Human CHO α3β4 Ca Flux IC50

CNC12CCCC1(CO)C1CCC2C1 (centres unmarked)
Ki [1, 8]: 31 µM
Human α4β2 Ca Flux Imax [29C/HS] [2, 9]: 99 % inh
IC50 [2, 10]: 0.37 µM
IC50 [3, 11]: 0.38 µM
Emax [3, 12]: 90%
Human Ganglion Ca Flux Imax ([4]; SH-SY5Y cells, nicotine 20 μM): 91 % inh
IC50 [4, 13]: 0.2 µM
Ki [5]: 89 µM

CCC12CCCC1(NC)C1CCC2C1 (centres unmarked)
Ki [1]: 34 µM
IC50 [2]: 0.43 µM
Human α4β2 Ca Flux Imax [29C/HS] [2, 9]: 100 % inh
IC50 [3]: 0.17 µM
Emax [3]: 97%
Ki [6]: 75 µM
IC50 [7]: 0.22 µM
Human CHO α3β4 Ca Flux Imax ([7]; nicotine 20 μM): 97 % inh
Human Ganglion Ca Flux Imax ([4]; SH-SY5Y cells, nicotine 20 μM): 98 % inh
IC50 [4, 13]: 0.02 µM

CCCCC12CCCC1(NC)C1CCC2C1 (centres unmarked)
Ki [1, 8]: 73 µM
Human α4β2 Ca Flux Imax [29C/HS] [2, 9]: 99 % inh
IC50 [2, 10]: 0.46 µM
IC50 [3, 11]: 0.14 µM
Emax [3]: 96%
Ki [6, 14]: 74 µM
Human CHO α3β4 Ca Flux Imax ([7]; nicotine 20 μM): 96 % inh
IC50 [7, 15]: 0.3 µM
IC50 [4]: 0.024 µM
Human Ganglion Ca Flux Imax ([4]; SH-SY5Y cells, nicotine 20 μM): 93 % inh

CN[C@]12CCC[C@H]1[C@@H]1CC[C@H]2C1
Ki [1]: 33 µM
IC50 [2]: 0.55 µM
Human α4β2 Ca Flux Imax [29C/HS] [2, 9]: 96 % inh
IC50 [3]: 0.34 µM
Emax [3]: 96%
IC50 [7]: 0.49 µM
Human CHO α3β4 Ca Flux Imax ([7]; nicotine 20 μM): 97 % inh
Human Ganglion Ca Flux Imax ([4]; SH-SY5Y cells, nicotine 20 μM): 95 % inh
IC50 [4, 13]: 0.38 µM

[2H]C([2H])NC12CCCC1(C([2H])([2H])[2H])C1CCC2C1 (centres unmarked)
Ki [1, 8]: 26 µM
IC50 [3, 11]: 0.076 µM
Emax [3, 12]: 95%
Human Ganglion Ca Flux Imax ([4]; SH-SY5Y cells, nicotine 20 μM): 99 % inh
IC50 [4, 13]: 0.083 µM

C[N+](C)(C)[C@]12CCC[C@H]1[C@@H]1CC[C@H]2C1
Ki [1, 8]: 8.6 µM
IC50 [3, 11]: 0.38 µM
Emax [3, 12]: 100%
Ki [6, 14]: 13 µM
Human Ganglion Ca Flux Imax ([4]; SH-SY5Y cells, nicotine 20 μM): 97 % inh
IC50 [4, 13]: 1.8 µM

C[N+](C)(C)[C@@]12CCC[C@@H]1[C@H]1CC[C@@H]2C1
Ki [1, 8]: 6.9 µM
IC50 [3, 11]: 0.26 µM
Emax [3, 12]: 98%
Human CHO α3β4 Ca Flux Imax ([7]; nicotine 20 μM): 94 % inh
IC50 [7, 15]: 0.94 µM

CC[C@]12CCC[C@@]1(NC)[C@@H]1CC[C@H]2C1
Ki [1]: 32 µM
IC50 [2]: 0.51 µM
Human α4β2 Ca Flux Imax [29C/HS] [2, 9]: 100 % inh
IC50 [3]: 6.9 µM
Emax [3]: 94%
Ki [6]: 53 µM
IC50 [7]: 0.12 µM
Human CHO α3β4 Ca Flux Imax ([7]; nicotine 20 μM): 97 % inh

CN(C)[C@]12CCC[C@H]1[C@@H]1CC[C@H]2C1
Ki [1, 8]: 47 µM
Human α4β2 Ca Flux Imax [29C/HS] [2, 9]: 99 % inh
IC50 [2, 10]: 0.41 µM
IC50 [3, 11]: 0.41 µM
Emax [3, 12]: 98%
Ki [6, 14]: 16 µM
Human CHO α3β4 Ca Flux Imax ([7]; nicotine 20 μM): 97 % inh
IC50 [7, 15]: 0.23 µM

CN(C)[C@@]12CCC[C@@H]1[C@H]1CC[C@@H]2C1
Ki [1, 8]: 20 µM
Human α4β2 Ca Flux Imax [29C/HS] [2, 9]: 96 % inh
IC50 [2, 10]: 0.51 µM
IC50 [3, 11]: 0.5 µM
Emax [3, 12]: 98%
Ki [6, 14]: 13 µM
Human CHO α3β4 Ca Flux Imax ([7]; nicotine 20 μM): 96 % inh
IC50 [7, 15]: 0.19 µM

CC[C@@]12CCC[C@]1(N(C)C)[C@H]1CC[C@@H]2C1
Ki [1, 8]: 33 µM
IC50 [3, 11]: 0.71 µM
Emax [3]: 98%
Ki [6, 14]: 91 µM
Human CHO α3β4 Ca Flux Imax ([7]; nicotine 20 μM): 95 % inh
IC50 [7, 15]: 0.24 µM

CC[C@]12CCC[C@@]1(N(C)C)[C@@H]1CC[C@H]2C1
Ki [1, 8]: 64 µM
IC50 [3, 11]: 0.37 µM
Emax [3]: 99%
Ki [6, 14]: 70 µM
Human CHO α3β4 Ca Flux Imax ([7]; nicotine 20 μM): 96 % inh
IC50 [7, 15]: 0.2 µM
